Test results from US11525018B2, “Methods of preparing compositions for containers and other articles and methods of using same” (SWIMC LLC, priority 2014, dated 2022).

Legend:
MCF-7, clone WS8, cells = assay: MCF-7 cell proliferation assay of estrogenic activity; assay type: cell-based, human; details: logarithmic (base 10) Relative Proliferative Effect vs 17-beta estradiol (EC50 ratio times 100), cell proliferation as total DNA; values 'expected or measured'
From the text: The MCF-7 assay is a useful test for assessing whether a polyhydric phenol compound is appreciably non-estrogenic. The MCF-7 assay uses MCF-7, clone WS8, cells to measure whether and to what extent a substance induces cell proliferation via estrogen receptor (ER)-mediated pathways. The method is described in “Test Method Nomination: MCF-7 Cell Proliferation Assay of Estrogenic Activity” submitted for validation by CertiChem, Inc. to the National Toxicology Program Interagency Center for the Evaluation of Alternative Toxicological Methods (NICEATM) on Jan. 19, 2006 (available online at http://iccvam.niehs.nih.gov/methods/endocrine/endodocs/SubmDoc.pdf).
A brief summary of the method of the aforementioned MCF-7 assay is provided below. MCF-7, clone WS8, cells are maintained at 37° C. in RMPI (or Roswell Park Memorial Institute medium) containing Phenol Red (e.g., GIBCO Catalog Number 11875119) and supplemented with the indicated additives for routine culture. An aliquot of cells maintained at 37° C. are grown for 2 days in phenol-free media containing 5% charcoal stripped fetal bovine serum in a 25 cm^2 tissue culture flask. Using a robotic dispenser such as an epMotion 5070 unit, MCF-7 cells are then seeded at 400 cells per well in 0.2 ml of hormone-free culture medium in Corning 96-well plates. The cells are adapted for 3 days in the hormone-free culture medium prior to adding the chemical to be assayed for estrogenic activity. The media containing the test chemical is replaced daily for 6 days. At the end of the 7-day exposure to the test chemical, the media is removed, the wells are washed once with 0.2 ml of HBSS (Hanks' Balanced Salt Solution), and then assayed to quantify amounts of DNA per well using a micro-plate modification of the Burton diphenylamine (DPA) assay, which is used to calculate the level of cell proliferation.
RPE is the ratio between the EC50 of the test chemical and the EC50 of the control substance 17-beta estradiol times 100, where EC50 is “effective concentration 50%” or half-maximum stimulation concentration for cell proliferation measured as total DNA in the MCF-7 assay.

[1] = suitable genotoxicity assays (e.g., Ames II assay)
Procedure: A solution of 4,4′-methylenebis(2,6-di-t-butylphenol) (500 grams, 1.076 moles obtained from Albemarle Corporation) in anhydrous dimethylformamide (1.5 liters) was cooled to −10° C. and a solution of sodium tert-pentoxide (374 grams, 3.23 moles) in anhydrous dimethylformamide (1.5 liters) was added drop wise at −10 to −5° C. The mixture was stirred for 30 minutes at −10° C. Epichlorohydrin (1.9 liters, 24.2 moles) was added via dropping funnel at −10 to −5° C. The solution was allowed to warm up to room temperature and then was heated for 16 hours at a temperature of from 75 to 82° C. After cooling down to ambient temperature, the mixture was added to cold tap water (12 liters). Ethyl acetate (5 liters) was added to the mixture, which was stirred for 10 minutes and separated. The aqueous layer was extracted again with additional ethyl acetate (3 liters). The combined ethyl acetate extracts were washed twice with brine (2×6 liters), dried over anhydrous sodium sulfate (600 grams), and filtered. The solvent was removed under reduced pressure to give 887 grams of crude product as a purple oil. The crude product was dissolved in toluene (600 milliliters) and passed over a silica gel pad (1.4 kilograms), and eluted with a mixture of toluene and heptane (8 parts toluene to 2 parts heptane). The fractions containing product were combined and evaporated under reduced pressure. […]

human estrogen receptor = biological target: T1, human estrogen receptor (Homo sapiens, UniProt P03372); assay: suitable in vitro assay correlated to the MCF-7 assay (estrogenic activity); assay type: cell-based; details: in vitro assay whose results are directly correlated to the MCF-7 assay through common reference compounds
T1 sequence (P03372 1-595): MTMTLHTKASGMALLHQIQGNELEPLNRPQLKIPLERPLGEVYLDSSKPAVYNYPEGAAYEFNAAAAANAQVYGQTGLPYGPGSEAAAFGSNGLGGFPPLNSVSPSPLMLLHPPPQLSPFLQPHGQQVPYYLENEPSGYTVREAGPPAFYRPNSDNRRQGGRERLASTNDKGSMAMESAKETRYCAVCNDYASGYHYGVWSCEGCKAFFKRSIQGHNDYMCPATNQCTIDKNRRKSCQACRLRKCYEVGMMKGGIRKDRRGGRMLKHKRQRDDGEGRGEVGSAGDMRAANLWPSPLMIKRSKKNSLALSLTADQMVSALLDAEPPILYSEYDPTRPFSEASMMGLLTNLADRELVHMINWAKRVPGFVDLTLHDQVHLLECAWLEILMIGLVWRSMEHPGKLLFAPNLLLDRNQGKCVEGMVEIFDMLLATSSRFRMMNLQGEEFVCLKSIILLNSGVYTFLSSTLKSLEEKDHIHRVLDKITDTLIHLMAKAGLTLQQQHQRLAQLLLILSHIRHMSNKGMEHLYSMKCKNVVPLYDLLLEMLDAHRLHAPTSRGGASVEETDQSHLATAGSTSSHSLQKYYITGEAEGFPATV

SMILES: C[C@]12CC[C@@H]3c4ccc(O)cc4CC[C@H]3[C@@H]1CC[C@@H]2O [17β-estradiol, reference compound]
- Log RPE (MCF-7, clone WS8, cells): 2.00

SMILES: Oc1ccc(Cc2ccc(O)cc2)cc1 [Bisphenol F, reference compound]
- Log RPE (MCF-7, clone WS8, cells): −2

SMILES: O=S(=O)(c1ccc(O)cc1)c1ccc(O)cc1 [Bisphenol S, reference compound]
- Log RPE (MCF-7, clone WS8, cells): −2

SMILES: CC(C)(C)c1cc(Cc2cc(C(C)(C)C)c(OCC3CO3)c(C(C)(C)C)c2)cc(C(C)(C)C)c1OCC1CO1 (stereo not shown) [Diglycidyl ether of 4,4′-methylenebis(2,6-di-tert-butylphenol)]
- genotoxicity [1]: non-genotoxic

SMILES: CCCC(c1cc(C(C)(C)C)c(OCC2CO2)cc1C)c1cc(C(C)(C)C)c(OCC2CO2)cc1C (stereo not shown) [Diglycidyl ether of 4,4′Butylidenebis(2-t-butyl-5-methylphenol))]
- genotoxicity [1]: non-genotoxic

SMILES: O=C(OCC1CCC(COC(=O)c2cccc(O)c2)CC1)c1cccc(O)c1 (stereo not shown) [Example 2, Run III, bis(3-hydroxybenzoate) of Cyclohexanedimethanol]
- Log RPE (MCF-7, clone WS8, cells): less than −4

SMILES: O=c1c(-c2ccc(O)cc2)coc2cc(O)cc(O)c12 [Genistein, reference compound]
- Log RPE (MCF-7, clone WS8, cells): −2

SMILES: Cc1cc(C(C)(C)c2cc(C)c(O)c(C)c2)cc(C)c1O [Structure 1]
- Log RPE (MCF-7, clone WS8, cells): −2

SMILES: Cc1cc(CCc2cc(C)c(O)c(C)c2)cc(C)c1O [Structure 2]
- Log RPE (MCF-7, clone WS8, cells): −3

SMILES: CC(c1ccc(O)cc1)(c1ccc(O)cc1)c1ccc(O)cc1 [Structure 3]
- Log RPE (MCF-7, clone WS8, cells): −3

SMILES: CC(c1ccccc1)(c1ccc(O)cc1)c1ccc(O)cc1 [Structure 4]
- Log RPE (MCF-7, clone WS8, cells): −3

SMILES: CC(C(=O)O)(c1ccc(O)cc1)c1ccc(O)cc1 [Structure 5]
- Log RPE (MCF-7, clone WS8, cells): less than −4

SMILES: Cc1cc(Cc2cc(C)c(O)c(C)c2)cc(C)c1O [Structure 6, 4,4′-methylenebis(2,6-dimethylphenol)]
- estrogenic activity (human estrogen receptor): do not exhibit appreciable estrogenic activity

SMILES: Cc1cc(Cc2cc(C)c(O)c(C)c2)cc(C)c1O [Structure 6]
- Log RPE (MCF-7, clone WS8, cells): less than −4

SMILES: CCCC(c1cc(C(C)(C)C)c(O)cc1C)c1cc(C(C)(C)C)c(O)cc1C [Structure 7, 4,4′-butylidenebis(2-t-butyl-5-methylphenol)]
- estrogenic activity (human estrogen receptor): do not exhibit appreciable estrogenic activity

SMILES: CCCC(c1cc(C(C)(C)C)c(O)cc1C)c1cc(C(C)(C)C)c(O)cc1C [Structure 7]
- Log RPE (MCF-7, clone WS8, cells): less than −4

SMILES: CC(C)(C)c1cc(Cc2cc(C(C)(C)C)c(O)c(C(C)(C)C)c2)cc(C(C)(C)C)c1O [Structure 8, 4,4′-methylenebis(2,6-di-t-butylphenol)]
- estrogenic activity (human estrogen receptor): do not exhibit appreciable estrogenic activity

SMILES: Cc1cc(Cc2cc(C)cc(C(C)(C)C)c2O)c(O)c(C(C)(C)C)c1 [Structure 9]
- Log RPE (MCF-7, clone WS8, cells): less than −4
- estrogenic activity (human estrogen receptor): do not exhibit appreciable estrogenic activity

SMILES: CC(C)(c1ccc(O)cc1)c1ccc(C(C)(C)c2ccc(O)cc2)cc1 [Structure 10]
- Log RPE (MCF-7, clone WS8, cells): less than −4

SMILES: Oc1ccccc1Cc1ccccc1O [Structure 11]
- Log RPE (MCF-7, clone WS8, cells): less than −4

SMILES: CC(C)(C)c1cc(O)c(C(C)(C)C)cc1O [Structure 12, 2,5-di-t-butylhydroquinone]
- estrogenic activity (human estrogen receptor): do not exhibit appreciable estrogenic activity

SMILES: CC(C)(C)c1cc(O)c(C(C)(C)C)cc1O [Structure 12]
- Log RPE (MCF-7, clone WS8, cells): less than −4

SMILES: Cc1cc(Cc2cc(C)cc(C3(C)CCCCC3)c2O)c(O)c(C2(C)CCCCC2)c1 [Structure 13]
- Log RPE (MCF-7, clone WS8, cells): less than −4

SMILES: CCc1cc(Cc2cc(CC)cc(C(C)(C)C)c2O)c(O)c(C(C)(C)C)c1 [Structure 15]
- Log RPE (MCF-7, clone WS8, cells): less than −4

SMILES: CC(C)(c1cc(Br)c(O)c(Br)c1)c1cc(Br)c(O)c(Br)c1 [Structure 16]
- Log RPE (MCF-7, clone WS8, cells): −3

SMILES: C/C=C(/C(=C/C)c1ccc(O)cc1)c1ccc(O)cc1 [dienestrol, reference compound]
- Log RPE (MCF-7, clone WS8, cells): about 2

SMILES: CC/C(=C(/CC)c1ccc(O)cc1)c1ccc(O)cc1 [diethylstilbestrol, reference compound]
- Log RPE (MCF-7, clone WS8, cells): about 2
